Data published in patent publication US8551537B2, “Rhus verniciflua stokes extract having increased content of active flavonoid compound and method for preparing same” (AZI Company Ltd., priority 2010, dated 2013).

Test: Anti-oxidative activity, electron-donating ability by DPPH method
Type: biochemical
Protocol: A measurement of anti-oxidative activity was performed by using a method of measuring an electron-donating ability with DPPH method. DPPH is an abbreviation for 1,1-diphenyl-2-picrylhydrazyl, and is widely used a marker for measuring anti-oxidative activity due to its radical. The testing processes were as follows: (1) 2 ml of 0.1 mM DPPH (Sigma, D-9132) dissolved in ethanol was treated to 2 ml of sample dissolved in ethanol; (2) it was mixed for 10 minutes, and then maintained at a dark place for 30 minutes; (3) an absorbance was measured at 520 nm; and (4) the degree of anti-oxidative ability (electron-donating ability, EDA) was calculated. Vitamin E (Fluka, 95420) was used as a positive control group and Formula was as follow.
In the above formula, Cabs denotes an absorbance of a negative control group (in the case of treating only ethanol instead of sample) and Sabs denotes an absorbance of sample.

[1] = Table 1, comparison experiment between fustin and fisetin
[2] = Table 4, DPPH method, absorbance at 520 nm

Anti-oxidative Activity (IC50, ug/ml) [1] [µg/mL] | Anti-oxidative Activity (IC50, ug/ml) [2] [µg/mL] | Structure (SMILES) | antioxidative activity of fisetin as compared with that of fustin (ratio versus fustin)
8 | 7.8 | O=c1c(O)c(-c2ccc(O)c(O)c2)oc2cc(O)ccc12 [Fisetin, 2-(3,4-dihydroxyphenyl)-3,7-dihydroxy-4H-chromen-4-one-hydrate] | at least 5 times
33 | 32 | O=C1c2ccc(O)cc2O[C@H](c2ccc(O)c(O)c2)[C@H]1O [Fustin, 2,3-Dihydrofisetin] | –
